Results from patent publication US20240252496A1, “SELECTIVE HYPOTHALAMUS PERMEABLE HDAC6 INHIBITORS FORTREATMENT OF LEPTIN-RESISTANT OBESITY” (The Children’s Medical Center Corporation, priority 2022, published 2024).
“Also recorded” adds a separate entry of the source.

Assays:
[1] = Brain/plasma ratio, brain and hypothalamus penetrance; format: in vivo; settings: in words
[2] = molecular target: HDAC6 (Mus musculus (Mouse), UniProt Q9Z2V5); assay: HDAC6 inhibition in hypothalamus and other brain regions (Ac-tubulin); set-up: species or system mice; settings: in vivo
[3] = 5 mg/kg i.p.; cited from earlier work
[4] = tested on: DIO mice; assay: Chronic treatment of DIO mice (body weight, food intake, leptin, DEXA); format: in vivo; settings: for body weight effect of chronic treatment: DIO mice, 3 weeks i.p., bavarostat 10, citarinostat 25, ricolinostat 50 mg/kg; for food intake and total body fat mass: high fat diet induced mice, summary
Description: DIO mice were treated with ACY775 (10 mg/kg/day, i.p.) for 3 weeks. Daily body weight (g) of DIO mice treated with vehicle (n=17) or ACY775 (n=17) during 3 weeks of treatment was determined. Daily food intake (g) during 3 weeks of vehicle or ACY775 treatment was assessed. 24 hours' food intake per mouse during the first week of vehicle or ACY775 treatment was determined. Serum leptin (ng/ml) levels after 3 weeks of vehicle (n=24) or ACY775 (n=24) treatment was assessed. Lean mass (g), fat mass (g) and fat percentage (%) after 3 weeks of vehicle (n=17) or ACY775 (n=17) treatment measured by Dual-energy X-ray absorptiometry (DEXA) scan. DEXA scans were performed in two different cohorts. Glucose tolerance test (GTT) after 1 week of vehicle (n=33) or ACY775 (n=26) treated DIO mice was assessed. Area of curve (AOC) analysis for GTT was performed. Blood glucose (mg/dl) levels after 1 week of vehicle (n=17) or ACY775 (n=16) were assessed in treated DIO mice. Insulin tolerance test (ITT) was performed after 2 weeks of vehicle (n=31) or ACY775 (n=21) treatment of DIO mice. Serum insulin (ng/ml) levels were measured after 3 weeks of vehicle (n=22) or ACY775 (n=21) in treated DIO mice. A homeostatic model assessment of insulin resistance (HOMA-IR) was analyzed after 3 weeks of vehicle (n=14) or ACY775 (n=13) treated DIO mice.
Food intake was analyzed hourly until 3:00 am. […] DEXA scans were performed in two different cohorts.
DIO mice then were treated with ricolinostat (50 mg/kg, i.p.) for 3 weeks. Daily body weight (g), daily food intake (g), serum leptin (ng/ml) levels after 3 weeks of vehicle (n=8) or ricolinostat (n=8) treatment, lean mass (g); fat mass and fat percentage (%) after 3 weeks of vehicle (n=16) or ricolinostat (n=17) treatment measured by DEXA scan were determined.
Studies were conducted as described above with reference to ACY775.
DIO mice then were treated with bavarostat (10 mg/kg, i.p.) for 3 weeks and daily body weight (g) of DIO mice treated with Veh (n=9) or bavarostat (n=9) measured during the three weeks of treatment period. Daily food intake (g) during 3 weeks of Veh or bavarostat treatment was also measured.
ACY1083 was administered to DIO mice as described in Example 3.

[5] = cited from earlier work; for brain penetrance / BBB permeability: in words
[6] = molecular target: HDAC6 (Homo sapiens (Human), UniProt Q9UBN7); settings: cited from earlier work
[7] = tested on: DIO mice; assay: Chronic treatment of DIO mice (body weight, food intake, leptin, DEXA); format: in vivo; settings: oral administration
[8] = tested on: HDAC6 KO mice; assay: 3-week treatment of DIO WT versus HDAC6 KO mice; format: in vivo; settings: for body weight, HDAC6 KO vs WT DIO mice: 3 weeks i.p., ACY775 10, ACY738 50, Tubastatin A 25 mg/kg/day
[9] = tested on: diet-induced obese mice; settings: cited from earlier work
[10] = tested on: HDAC6 in AgRP neurons; assay: DIO mice with HDAC6 deleted in AgRP neurons (HDAC6^Agrp-Δ); format: in vivo; settings: chronic treatment
Description: Design, validation, and stereotaxic injection of AAV viral vector carrying the guide RNAs targeting the mouse HDAC6 genomic locus. Three designed sgRNAs were concatenated and constructed into an AAV vector carrying a cre-enabled mCherry fluorescent marker.
Following the bilateral injection of AAV-sgHDAC6 into the arcuate nucleus of Agrp-ires-cre::LSL-Cas9-GFP (Agrp-Cre^+/−::Cas9^+/−) or control LSL-Cas9-GFP (Cas9^+/−) mice, immunostaining to detect the expression of mCherry and GFP was performed. AAV-sg-HDAC6 injected Agrp-Cre^+/−::Cas9^+/− (HDAC6^Agrp-Δ) and Cas9^+/− (HDAC6^WT) DIO mice (n=7 for each group) were fasted for 24 hours, and injected with ACY775 (10 mg/kg. i.p). Hourly total dark cycle food intake (g) (n=7 for each group) of these mice after ACY775 injection was measured. Body weight of AAV-sg-HDAC6 injected HDAC6^Agrp-Δ (n=11) and HDAC6^WT (n=6) mice were measured during 3 weeks of ACY775 (10 mg/kg/day, i.p.) treatment. Daily average food intake of HDAC6^Agro-Δ (n=11) and HDAC6^WT (n=6) mice was measured during 3 weeks of ACY775 (10 mg/kg/day, i.p.) treatment. 24-hour food intake average of HDAC Agrp- and HDAC6^WT mice during the 3 weeks of ACY775 treatment was assessed. Serum leptin level (ng/ml) of HDAC6^Agrp-Δ and HDAC6^WT mice after 2 weeks of ACY775 treatment (n=13 for HDAC6^WT and n=18 for HDAC6^Agrp-Δ) was measured. Lean mass (g); fat mass; and fat percentage (%) of HDAC Agrp- and HDAC6^WT DIO mice after 3 weeks of ACY775 treatment was measured by DEXA scan. The HDAC6 inhibitor responsive neurons in the dorsomedial hypothalamus (DMH) were assessed. Immunostaining and quantification of c-Fos expression was performed in the DMH of DIO mice following one-time ACY775 treatment (10 mg/kg, i.p.).

[11] = tested on: DIO mice; assay: Acute leptin co-treatment in DIO mice (body weight, food intake 15 h); format: in vivo; settings: leptin 1 mg/kg i.p.
Description: DIO mice were pretreated with ACY775 (10 mg/kg/day, i.p.) or vehicle for 3 days, which was followed by co-treatment with ACY775 (or vehicle) and leptin (1 mg/kg, i.p.) (or saline) (n=9 for each group), % change in body weight 15 h after leptin treatment, food intake (g) during the 15 h period after leptin treatment. The results in were reproduced in two independent experiments.
Diet induced obese (DIO) mice were pretreated with ACY775 (10 mg/kg/day, i.p.) or vehicle for 3 days, which was followed by co-treatment with ACY775 (or vehicle) and leptin (1 mg/kg, i.p.) (or saline) (n=9 for each group). Mice were evaluated for % change in body weight 15 h after leptin treatment, and food intake (g) during the 15 h period after leptin treatment.
DIO mice were pretreated with ricolinostat (25 mg/kg/day, i.p.) or vehicle for 3 days, which was followed by co-treatment with ricolinostat (or vehicle) and leptin (1 mg/kg, i.p.) (or saline) (n=32 for each group). Change in body weight 15 h after leptin treatment, and food intake (g) during the 15 h period after leptin treatment were determined. The results were reproduced in two independent experiments.

[12] = tested on: STAT3^Tyr705 phosphorylation; assay: Leptin-stimulated hypothalamic STAT3 phosphorylation in DIO mice; format: in vivo; settings: leptin 1 mg/kg i.p.
Description: DIO mice were pretreated with ACY775 (10 mg/kg/day, i.p.) or vehicle for 3 days, which was followed by a last injection of ACY775 (or vehicle) in the morning of fourth day. 6 hours later mice were injected with saline or leptin (1 mg/kg, i.p.) and hypothalamus were extracted after 45 minutes following the leptin injection. Representative immunoblots for STAT3^Tyr705 phosphorylation and total STAT3 from the hypothalamus. Quantification of the ratio of p-STAT3^Tyr705 to total-STAT3 signal in the immunoblots. The results were reproduced in three independent experiments. The results were analyzed hourly.
DIO mice were pretreated with ACY775 (10 mg/kg/day, i.p.) or vehicle for 3 days, which was followed by a last injection of ACY775 (or vehicle) in the morning of fourth day. 6 hours later mice were injected with saline or leptin (1 mg/kg, i.p.) and the hypothalamus were extracted after 45 minutes following the leptin injection.
6 hours later mice were injected with saline or leptin (1 mg/kg, i.p.) and hypothalamus were extracted after 45 minutes following the leptin injection. Immunoblots for STAT3^Tyr705 phosphorylation and total STAT3 from the hypothalamus were made to quantify the ratio of p-STAT3^Tyr705 to total-STAT3 signal in the immunoblots. The results were reproduced in two independent experiments.
DIO mice were pretreated with ricolinostat (50 mg/kg/day, i.p.) or vehicle 3 days, which was followed by a last injection of ricolinostat (or vehicle) in the morning of fourth day. 6 hours later mice were injected with saline or leptin (1 mg/kg, i.p.) and the hypothalamus were extracted after 45 minutes following the leptin injection. Immunoblots were performed for STAT3^Tyr705 phosphorylation and total STAT3 from the hypothalamus. The ratio of p-STAT3^Tyr705 to total STAT3 signal in the immunoblots was quantified.

HDAC6 (Mus musculus (Mouse), UniProt Q9Z2V5), sequence (Q9Z2V5 whole entry): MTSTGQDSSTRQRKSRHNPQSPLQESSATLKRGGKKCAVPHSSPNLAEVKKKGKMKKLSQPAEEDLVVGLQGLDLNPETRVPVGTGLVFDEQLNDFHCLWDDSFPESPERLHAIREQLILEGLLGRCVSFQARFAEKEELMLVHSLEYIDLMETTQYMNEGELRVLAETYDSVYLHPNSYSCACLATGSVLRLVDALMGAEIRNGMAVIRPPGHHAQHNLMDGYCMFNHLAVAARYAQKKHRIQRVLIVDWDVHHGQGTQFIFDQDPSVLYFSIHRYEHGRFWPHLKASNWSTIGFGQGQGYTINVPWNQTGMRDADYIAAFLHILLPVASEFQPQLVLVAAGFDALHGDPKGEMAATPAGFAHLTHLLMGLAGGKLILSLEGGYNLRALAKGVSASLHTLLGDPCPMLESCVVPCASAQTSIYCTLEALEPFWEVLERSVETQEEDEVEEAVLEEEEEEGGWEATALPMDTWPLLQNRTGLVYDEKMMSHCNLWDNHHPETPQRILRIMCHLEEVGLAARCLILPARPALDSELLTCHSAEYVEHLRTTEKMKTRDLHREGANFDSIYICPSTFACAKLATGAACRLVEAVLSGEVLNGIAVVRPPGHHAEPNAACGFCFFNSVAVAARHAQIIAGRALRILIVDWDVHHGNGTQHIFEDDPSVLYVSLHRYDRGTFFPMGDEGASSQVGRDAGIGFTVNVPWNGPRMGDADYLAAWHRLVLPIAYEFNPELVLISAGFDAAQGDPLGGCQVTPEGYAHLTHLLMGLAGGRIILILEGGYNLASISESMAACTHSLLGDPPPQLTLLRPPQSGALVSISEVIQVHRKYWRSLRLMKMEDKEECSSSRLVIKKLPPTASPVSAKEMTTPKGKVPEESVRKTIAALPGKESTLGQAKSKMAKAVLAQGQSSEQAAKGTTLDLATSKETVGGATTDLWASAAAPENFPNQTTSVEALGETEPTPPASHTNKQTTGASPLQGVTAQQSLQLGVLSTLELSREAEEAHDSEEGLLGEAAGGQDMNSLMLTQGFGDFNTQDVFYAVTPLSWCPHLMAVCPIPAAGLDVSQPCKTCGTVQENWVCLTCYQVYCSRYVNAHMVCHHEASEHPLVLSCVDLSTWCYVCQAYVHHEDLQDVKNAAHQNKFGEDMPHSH
HDAC6 (Homo sapiens (Human), UniProt Q9UBN7), sequence (Q9UBN7 whole entry, species assumed): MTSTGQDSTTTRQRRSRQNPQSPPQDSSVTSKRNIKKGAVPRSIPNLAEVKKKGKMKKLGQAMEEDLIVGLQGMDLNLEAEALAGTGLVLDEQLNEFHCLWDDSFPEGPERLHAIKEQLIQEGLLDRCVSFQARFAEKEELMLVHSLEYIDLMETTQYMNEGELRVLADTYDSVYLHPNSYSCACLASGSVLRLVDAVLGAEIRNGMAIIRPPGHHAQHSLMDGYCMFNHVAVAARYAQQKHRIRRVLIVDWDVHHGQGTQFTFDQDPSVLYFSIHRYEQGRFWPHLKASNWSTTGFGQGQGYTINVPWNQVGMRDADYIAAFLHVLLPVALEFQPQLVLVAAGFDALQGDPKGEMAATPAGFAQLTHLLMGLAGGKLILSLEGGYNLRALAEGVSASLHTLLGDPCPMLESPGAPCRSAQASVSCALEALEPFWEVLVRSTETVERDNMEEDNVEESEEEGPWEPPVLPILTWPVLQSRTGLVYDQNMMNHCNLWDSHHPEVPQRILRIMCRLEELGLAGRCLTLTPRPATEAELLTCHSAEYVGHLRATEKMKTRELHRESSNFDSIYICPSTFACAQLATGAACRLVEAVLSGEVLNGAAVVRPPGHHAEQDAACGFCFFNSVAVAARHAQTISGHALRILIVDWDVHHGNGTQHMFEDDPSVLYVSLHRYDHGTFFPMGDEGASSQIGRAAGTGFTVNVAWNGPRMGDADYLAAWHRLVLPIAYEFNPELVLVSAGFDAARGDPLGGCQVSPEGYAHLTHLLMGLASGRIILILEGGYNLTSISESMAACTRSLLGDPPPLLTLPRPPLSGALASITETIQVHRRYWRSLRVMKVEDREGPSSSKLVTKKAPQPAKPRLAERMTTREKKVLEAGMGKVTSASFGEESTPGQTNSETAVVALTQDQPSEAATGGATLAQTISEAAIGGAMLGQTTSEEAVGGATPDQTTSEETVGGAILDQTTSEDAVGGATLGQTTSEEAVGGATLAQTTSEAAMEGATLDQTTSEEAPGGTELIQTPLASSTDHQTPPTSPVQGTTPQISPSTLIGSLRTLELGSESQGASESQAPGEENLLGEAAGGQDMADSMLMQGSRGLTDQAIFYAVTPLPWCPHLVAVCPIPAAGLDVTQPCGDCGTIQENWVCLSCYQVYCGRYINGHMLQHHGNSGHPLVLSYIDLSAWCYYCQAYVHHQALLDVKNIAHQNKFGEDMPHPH

## CC1CCC(C(C)(C2CCC(C)CC2)C2CCC(C(C)C(C)CCCCC(C)C(C)C)CC2)CC1 (centres unmarked) [ACY257]
[1]
  penetrance into the hypothalamus: high penetrance into the arctuate nucleus of the hypothalamus
[2]
  HDAC6 inhibition in other brain regions (cerebrum, frontal lobe, temporal lobe, brainstem): does not inhibit HDAC6 in other brain regions
  HDAC6 inhibition in the hypothalamus: inhibits HDAC6 in the hypothalamus
[3]
  Cmax: 1047 ng/mL
  Plasma AUClast: 871 (5 mg/kg i.p.) hr*ng/ml
  T1/2: 8.15 h
[4]
  body weight effect of chronic treatment: as effective as ACY775 in reducing body weight; also recorded: Significant weight loss; also recorded: as effective as ACY775 in lowering body weight
  food intake and total body fat mass: significant reduction of food intake and total body fat mass
[4]; listed as ACY 257
  body weight effect of chronic treatment: greatly reduces body weight
[5]; in vivo
  AUC Brain/AUC Plasma Ratio: 0.01
[5]
  brain penetrance / BBB permeability: limited brain expression

## O=C(NO)c1cnc(NC2(c3ccccc3)CCC(F)(F)CC2)nc1 [ACY1083]
[6]
  selectivity for HDAC6 than all other classes of HDAC isoforms: 260 fold
[4]
  food intake and total body fat mass: significant reduction of food intake and total body fat mass
[7]
  body weight over 14 days: significant decrease in body weight; also recorded: Significant weight loss; also recorded: reduced body weight
[5]
  brain penetrance / BBB permeability: brain-penetrating

## CN(Cc1ccc(C(=O)NO)cc1F)CC12CC3CC(CC(C3)C1)C2 [Bavarostat, 4-(((((3r,5r,7r)-adamantan-1-yl)methyl)(methyl)amino)methyl)-3-fluoro-N-hydroxybenzamide]
[1]
  penetrance into the hypothalamus: high penetrance of the hypothalamus
[8]
  body weight, HDAC6 KO vs WT DIO mice: treatment of wild type mice but not HDAC6 Knockout animals with bavarostat caused weight loss
[4]
  body weight effect of chronic treatment: Significant weight loss; also recorded: statistically significantly effective in reducing food intake and body weight
  food intake and total body fat mass: significant reduction of food intake and total body fat mass
[5]
  brain penetrance / BBB permeability: high brain penetrance

## O=C(CCCCCCNC(=O)c1cnc(N(c2ccccc2)c2ccccc2Cl)nc1)NO [Citarinostat]
[2]
  HDAC6 inhibition in other brain regions (cerebrum, frontal lobe, temporal lobe, brainstem): inhibits HDAC6 in other brain regions
  HDAC6 inhibition in the hypothalamus: not in the hypothalamus
[2]; listed as citarinostat
  HDAC6 inhibition in the hypothalamus: does not show HDAC6 inhibition in the AGP neurons in the hypothalamus
[4]
  body weight effect of chronic treatment: not effective in reducing body weight
[4]; listed as citarinostat
  body weight effect of chronic treatment: ineffective weight lowering effect
[5]
  brain penetrance / BBB permeability: good brain penetrance

## CN1CCc2c(c3ccccc3n2Cc2ccc(C(=O)NO)cc2)C1 [Tubastatin A]
[1]
  penetrance into the hypothalamus: neither of which have high penetrance into the hypothalamus
[9]
  anti-obesity effects reported by Cakir et al.: reduce food intake, fat mass, hepatic steatosis and improve systemic glucose homeostasis; also recorded: attenuated in animals with a defective central leptin-melanocortin circuitry
[2]
  HDAC6 inhibition in the hypothalamus: nor show HDAC6 inhibition in the hypothalamus
[8]
  body weight, HDAC6 KO vs WT DIO mice: reduced the body weight of the HDAC6 KO mice the same as the wt mice
[8]; DEXA
  fat mass and fat %, HDAC6 KO vs WT: significantly lower in both wt and HDAC6 KO groups
  lean mass, HDAC6 KO vs WT: not different
[8]; mouse, in vivo
  blood glucose, serum insulin and leptin levels, HDAC6 KO vs WT: reduced equally in the wt and HDAC6 KO group
  food intake, HDAC6 KO vs WT DIO mice: reduced similarly
  glucose tolerance and insulin sensitivity (GTT, ITT), HDAC6 KO vs WT: improved glucose tolerance and increased insulin sensitivity in both wt and the HDAC6 KO mice
[10]
  anti-obesity effects in HDAC6^Agrp-Δ vs HDAC6^WT DIO mice: did not change Tubastatin A's effects on suppressing feeding or body weight
[5]; in vivo
  brain/plasma ratio: 0.18
[5]
  brain penetrance / BBB permeability: extremely low

## leptin: peptide hormone, product of the obese (ob) gene
[11]
  body weight, leptin alone: did not significantly alter their bodyweight; also recorded: did not change their bodyweight
  food intake, leptin alone: did not significantly change the food intake
[12]
  hypothalamic STAT3^Tyr705 phosphorylation, leptin in vehicle-treated mice: did not significantly increase STAT3^Tyr705 phosphorylation
